Measured values: ChEMBL document CHEMBL5729370 (2022)

molecular target: T1, Mitogen-activated protein kinase kinase kinase 5 (Homo sapiens, UniProt Q99683); test: HTRF KinEASE Assay: ASK1 was purchased from Thermofisher (Catalogue #PV4011), ATP was purchased from Sigma (Catalogue #A7699), HTRF® KinEASE™ Assay System was obtained from Cisbio (Bedford, Mass.). ½ Area plate was purchased from Perkin Elmer (Catalogue ##6005560). HTRF® KinEASE™-STK is a generic method for measuring serine/threonine kinase activities using a time-resolved fluorescence resonance energy transfer (TR-FRET) immunoassay. The IC50 value for each compound was determined in the presence of compound (various concentration from 0 to 10 μM) and a fixed amount of ATP and peptide substrates. The test compound, 1 μM STK3 peptide substrate, and 5 μM of ASK1 kinase are incubated with kinase reaction buffer containing 50 mM HEPES Ph 7.5, 0.01% BRIJ-35, 10 mM MgCl2, and 1 mM EGTA for 30 minutes. 100 μM ATP is added to start kinase reaction and incubated for 3 hours. The STK3-antibody labeled with Eu3+-Cryptate and 125 nM streptavidin-XL665 are mixed in a single addition with stop reagents provided by the Cisbio kit used to stop the kinase reaction. Fluorescence is detected using an Envision Multilabeled 2014 reader from PerkinElmer. The Fluorescence is measured at 615 nm (Cryptate) and 665 nm (XL665) and a ratio of 665 nm/615 nm is calculated for each well. The resulting TR-FRET is proportional to the phosphorylation level. Staurosporine was used as the positive control. IC50 was determined by Xlfit 5.3.; assay type: single protein
T1 sequence (Q99683 whole entry): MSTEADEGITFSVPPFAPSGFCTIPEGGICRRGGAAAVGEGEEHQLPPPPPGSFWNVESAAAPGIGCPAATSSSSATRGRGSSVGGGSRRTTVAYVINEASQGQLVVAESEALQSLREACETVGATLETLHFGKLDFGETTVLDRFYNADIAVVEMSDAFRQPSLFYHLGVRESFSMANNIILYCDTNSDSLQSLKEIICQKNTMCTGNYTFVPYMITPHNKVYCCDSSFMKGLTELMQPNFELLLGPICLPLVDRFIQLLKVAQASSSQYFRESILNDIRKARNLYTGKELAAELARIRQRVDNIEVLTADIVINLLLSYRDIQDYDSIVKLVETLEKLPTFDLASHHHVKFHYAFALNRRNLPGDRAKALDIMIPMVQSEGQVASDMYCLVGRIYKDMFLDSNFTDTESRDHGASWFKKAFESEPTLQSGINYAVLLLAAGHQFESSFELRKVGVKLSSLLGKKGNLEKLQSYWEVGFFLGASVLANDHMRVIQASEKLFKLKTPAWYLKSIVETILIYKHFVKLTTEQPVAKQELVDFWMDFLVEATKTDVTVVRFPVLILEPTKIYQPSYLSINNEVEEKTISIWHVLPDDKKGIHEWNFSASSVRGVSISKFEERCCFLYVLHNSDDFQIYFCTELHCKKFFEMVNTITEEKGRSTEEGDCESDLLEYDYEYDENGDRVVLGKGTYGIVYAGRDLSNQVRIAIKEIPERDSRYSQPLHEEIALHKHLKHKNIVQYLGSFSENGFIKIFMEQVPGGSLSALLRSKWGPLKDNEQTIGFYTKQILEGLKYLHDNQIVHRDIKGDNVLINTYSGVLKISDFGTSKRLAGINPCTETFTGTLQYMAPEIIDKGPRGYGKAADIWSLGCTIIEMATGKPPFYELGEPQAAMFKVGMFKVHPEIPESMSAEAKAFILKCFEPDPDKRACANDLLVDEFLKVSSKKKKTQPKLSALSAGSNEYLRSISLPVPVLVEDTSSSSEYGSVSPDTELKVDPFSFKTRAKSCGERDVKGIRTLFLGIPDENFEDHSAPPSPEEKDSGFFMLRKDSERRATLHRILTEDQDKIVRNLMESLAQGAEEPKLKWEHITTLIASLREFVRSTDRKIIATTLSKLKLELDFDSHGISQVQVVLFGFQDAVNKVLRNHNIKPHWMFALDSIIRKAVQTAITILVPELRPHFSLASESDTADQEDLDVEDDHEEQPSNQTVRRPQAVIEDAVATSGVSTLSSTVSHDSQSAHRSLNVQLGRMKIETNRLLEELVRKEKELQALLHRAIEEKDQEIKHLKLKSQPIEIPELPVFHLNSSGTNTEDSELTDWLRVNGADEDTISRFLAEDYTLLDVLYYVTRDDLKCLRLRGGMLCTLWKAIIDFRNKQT

| IC50 [nM] | Structure (SMILES) |
| --- | --- |
| < 1.25 | CCOC(=O)N1CCc2cc(OC)c(C(=O)Nc3cccc(-c4nnc5n4[C@H](C)CC5)n3)cc2C1 |
| > 1000 | CCOC(=O)N1CCc2cc(F)c(C(=O)Nc3cccc(-c4nnc5n4CCCC5)n3)cc2C1 |
| < 1.25 | CCOC(=O)N1CCc2cc(OC)c(C(=O)Nc3cccc(-c4nnc5n4C(C)(C)CC5)n3)cc2C1 |
| > 1000 | CCOC(=O)N1CCc2cnc(C(=O)Nc3cccc(-c4nnc5n4CCCC5)n3)cc2C1 |

| Structure (SMILES) | IC50 [nM] |
| --- | --- |
| CCOC(=O)N1CCc2cc(OC)c(C(=O)Nc3cccc(-c4nnc5n4CCCC5)n3)cc2C1 | 10 to 100 |
